Molecules are shown by their SMILES.

The assay concerns influenza A virus (A/WSN/33 NanoLuc reporter virus) in A549 cells. The assay is described as follows: microbe, parasite or virus in culture. Type of assay: cell-based. The following applies: A549, 24 h, read-out: IC50 values of viral replication inhibition in a cell-based Luciferase Reporter Assay (LRA). Background: A reporter such as luciferase makes a cellular process visible.
Take `CC(C)N1C[C@H](C(c2ccccc2)c2ccccc2)n2c(-c3nnn[nH]3)nc(=O)c(O)c2C1=O` [Ia-53, (4S)-4-Benzhydryl-9-hydroxy-2-isopropyl-6-(1H-tetrazol-5-yl)-3,4-dihydropyrazino[1,2-c]pyrimidine-1,8-dione]: the IC50 came to 20200 nM.

For `CC(C)N1C[C@H](C(c2ccccc2)c2ccccc2)n2c(CN)nc(=O)c(O)c2C1=O` [Ia-54, (4S)-6-(Aminomethyl)-4-benzhydryl-9-hydroxy-2-isopropyl-3,4-dihydropyrazino[1,2-c]pyrimidine-1,8-dione], the IC50 is 931 nM.

On to `CC(=O)NCc1nc(=O)c(O)c2n1[C@@H](C(c1ccccc1)c1ccccc1)CN(C(C)C)C2=O` [Ia-55, N-[[(4S)-4-Benzhydryl-9-hydroxy-2-isopropyl-1,8-dioxo-3,4-dihydropyrazino[1,2-c]pyrimidin-6-yl]methyl]acetamide], for which the IC50 stood at 473 nM.

With `COC(=O)Nc1nc(=O)c(O)c2n1[C@@H](C(c1ccccc1)c1ccccc1)CN(C(C)C)C2=O` [Ia-56, Methyl N-[(4S)-4-benzhydryl-9-hydroxy-2-isopropyl-1,8-dioxo-3,4-dihydropyrazino[1,2-c]pyrimidin-6-yl]carbamate], the IC50 was 200 nM.

With `COc1nc(=O)c(O)c2n1C(C(c1ccc(Cl)cc1)c1ccc(Cl)cc1)CN(C(C)C)C2=O` (stereo not drawn) [Ia-63, 4-[Bis(4-chlorophenyl)methyl]-9-hydroxy-2-isopropyl-6-methoxy-3,4-dihydropyrazino[1,2-c]pyrimidine-1,8-dione], the IC50 is 302 nM.

On to `CCN1CC(C(c2ccccc2)c2ccccc2)n2c(OC)nc(=O)c(O)c2C1=O` (stereo not drawn) [Ia-64, 4-Benzhydryl-2-ethyl-9-hydroxy-6-methoxy-3,4-dihydropyrazino[1,2-c]pyrimidine-1,8-dione], for which the IC50 worked out at 50 nM.

`COc1nc(=O)c(O)c2n1[C@@H](C(c1ccccc1)c1ccccc1)CN(C)C2=O` [Ia-65, (4S)-4-Benzhydryl-9-hydroxy-6-methoxy-2-methyl-3,4-dihydropyrazino[1,2-c]pyrimidine-1,8-dione]: the IC50 amounted to 26 nM.

On to `COc1nc(=O)c(O)c2n1[C@@H](C(c1ccccc1)c1ccccc1)CN([C@H](C)C(F)(F)F)C2=O` [Ia-66, (4S)-4-Benzhydryl-9-hydroxy-6-methoxy-2-[(1R)-2,2,2-trifluoro-1-methyl-ethyl]-3,4-dihydropyrazino[1,2-c]pyrimidine-1,8-dione], for which the IC50 was 26 nM.

As for `COc1nc(=O)c(O)c2n1C(C(c1ccccc1)c1ccccc1Br)CN(C)C2=O` (stereo not drawn) [Ia-70, 4-[(2-Bromophenyl)-phenyl-methyl]-9-hydroxy-6-methoxy-2-methyl-3,4-dihydropyrazino[1,2-c]pyrimidine-1,8-dione], the IC50 was 27 nM.

Take `COc1nc(=O)c(O)c2n1[C@@H](C(c1ccc(F)cc1)c1ccc(F)cc1)CN(C(C)C)C2=O` [Ia-71, (4S)-4-[Bis(4-fluorophenyl)methyl]-9-hydroxy-2-isopropyl-6-methoxy-3,4-dihydropyrazino[1,2-c]pyrimidine-1,8-dione]: the IC50 was 47 nM.

For the molecule `COc1nc(=O)c(O)c2n1[C@@H]([C@H](c1ccccc1)c1ccc(Cl)cc1)CN(C(C)C)C2=O` [Ia-72, (4S)-4-[(R)-(4-Chlorophenyl)-phenyl-methyl]-9-hydroxy-2-isopropyl-6-methoxy-3,4-dihydropyrazino[1,2-c]pyrimidine-1,8-dione], the IC50 amounted to 40 nM.

As for `COCCOc1nc(=O)c(O)c2n1[C@@H](C(c1ccccc1)c1ccccc1)CN(C)C2=O` [Ia-73, (4S)-4-Benzhydryl-9-hydroxy-6-(2-methoxyethoxy)-2-methyl-3,4-dihydropyrazino[1,2-c]pyrimidine-1,8-dione], the IC50 came to 119 nM.

As to `CC(C)N1C[C@H](C(c2ccccc2)c2ccccc2)n2c(CO)nc(=O)c(O)c2C1=O` [Ia-74, (4S)-4-Benzhydryl-9-hydroxy-6-(hydroxymethyl)-2-isopropyl-3,4-dihydropyrazino[1,2-c]pyrimidine-1,8-dione], the IC50 is 125 nM.

As for `CC(C)N1CC(C2c3ccccc3CCc3ccccc32)n2c(S)nc(=O)c(O)c2C1=O` (stereo not drawn) [Ia-75, 4-(6,11-Dihydro-5H-dibenzo[2,1-b:1′,2′-e][7]annulen-11-yl)-9-hydroxy-2-isopropyl-6-sulfanyl-3,4-dihydropyrazino[1,2-c]pyrimidine-1,8-dione], the IC50 came out at 45 nM.

In the case of `CC(C)N1C[C@H](C2c3ccccc3CCc3ccccc32)n2c(S(C)(=O)=O)nc(=O)c(O)c2C1=O` [Ia-76, (4S)-4-(6,11-Dihydro-5H-dibenzo[2,1-b:1′,2′-e][7]annulen-11-yl)-9-hydroxy-2-isopropyl-6-methylsulfonyl-3,4-dihydropyrazino[1,2-c]pyrimidine-1,8-dione], the concentration for half-maximal inhibition (IC50) stood at 13 nM.

A word on the IC50: it is the midpoint of a concentration-inhibition curve.

These data come from patent US9988390B2, “Pyrimidone derivatives and their use in the treatment, amelioration or prevention of a viral disease” (F. Hoffmann-La Roche AG, priority 2015, dated 2018).
